Laboratory results as given in patent US11248020B2, “Oligonucleotide compositions and methods for treating diseases” (priority 2017, dated 2022).

Experiments:
Alzheimer's Disease = assay: Alzheimer's disease patients scored by MMSE and ADAScog; type: in vivo, human; settings: average values per group
Description: In the first control group, the patients received conventional therapy, i.e., a reversible, noncompetitive glutamate receptors antagonist Memantine (10 mg per day). In the second control group the patients received placebo. Test group #4, and Test group #5 received compositions #4 and 5, respectively, in the form of extended release sublingual tablets (also comprising 12% hypromellose; 10% lactose monohydrate; 60% carbopol; 8% Polycarbophil; 10% starch-based gel) used 2 time a day. The patients were scored according to MMSE (Mini-Mental State Examination) and ADAScog (assessment of cognitive impairment) scales. 12 groups of 4 people were formed.

colon cancer = assay: Azoxymethane colon cancer model in rats after total colectomy: recurrences, metastases, survival; type: in vivo, male albino Wistar rats
Description: The studies were performed in male albino Wistar rats (Rappolovo breeding nursery), aged 14 weeks, weighing 180-190 g. Prior to the study period, animals (n=600) were kept in identical conditions, and received the same diet. For modeling colon cancer, the animals received Azoxymethane (Sigma) in the amount of 10 mg/kg (in 0.9% NaCl) for 12 weeks. In 26 weeks, the abdomen of anesthetized animals was opened, and the presence and size of colon tumors and metastases was visually assessed. Animals bearing neoplasms of more than 3 mm in diameter and having no observed metastases (360 animals) were subjected to total colectomy. In 2 days after surgery, mono- and/or oligonucleotide mixtures were administered either parenterally (via IV) or enterally (with drinking water). Each group consisted of 20 animals. In 8 weeks, surviving animals were sacrificed (animals were randomized into groups with 10 surviving animals per group), and the recurrence rates and presence of metastases was evaluated.
Enteral Administration The first control group received no treatment. Test group #1, Test group #2, Test group #3, Test group #4, Test group #5, and Test group #6 received mixtures of mono- and/or oligonucleotides (from 1 to 100,000 mcg/kg/day) prepared with the use of different nucleases, as specified in Table 2, below:
The first control group received no treatment. The second control group received conventional therapy consisting of 5-fluorouracil (5 mg/kg/day). Test group #1, Test group #2, Test group #3, Test group #4, and Test group #5 were administered (from 1 to 100,000 mcg/kg/day for 30 days).

[1] = enteral administration (with drinking water), evaluated in 8 weeks
[2] = parenteral administration (via IV), 30 days

CC12CC3CC(C)(C1)CC(N)(C3)C2 [1st control group, Memantine]
Patients score ADAScog (Alzheimer's Disease; in 30 days): 37 | Patients score MMSE (Alzheimer's Disease; in 30 days): 15 | Patients score ADAScog (Alzheimer's Disease; in 90 days): 37 | Patients score MMSE (Alzheimer's Disease; in 90 days): 16 | Patients score ADAScog (Alzheimer's Disease; pre-treatment): 41 | Patients score MMSE (Alzheimer's Disease; pre-treatment): 13

O=c1[nH]cc(F)c(=O)[nH]1 [2nd control, 5-fluorouracil]
No. of animals in the group with recurrences or metastases (colon cancer; [1]): 4 | No. of animals with metastasis (colon cancer; [1]): 7 | No. of surviving animals/Total No. per group (colon cancer; enteral administration (with drinking water), in 8 weeks): 13/20 | No. of animals in the group with recurrences or metastases (colon cancer; [2]): 4 | No. of animals with metastasis (colon cancer; [2]): 6 | No. of surviving animals/Total No. of animals per group (colon cancer; [2]): 14/20
